Laboratory results from PubChem BioAssay (NCI).
“And” between values parts separate entries of the source, which are not always exact repeats. Identical values can stand only once.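 Step 1: Grow cells in 96-well plates. Step 2: Expose to compound for 48 hours at 5 concentrations. Step 3: Interpolate endpoints linearly; if unreached, use highest concentration. At the GI50, growth is halved. TGI marks complete inhibition of growth.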

Experiments:
Assay in all cases: NCI tumour cell line growth inhibition, 48 h
HOP-92 NSCLC = tested on: HOP-92 NSCLC
SNB-19 CNS = tested on: SNB-19 CNS
MDA-MB-435 = tested on: MDA-MB-435
SF-268 CNS = tested on: SF-268 CNS
SF-539 CNS = tested on: SF-539 CNS
SNB-75 CNS = tested on: SNB-75 CNS
CCRF-CEM leukemia = tested on: CCRF-CEM leukemia
KM12 colon = tested on: KM12 colon
MCF7 breast = tested on: MCF7 breast
NCI/ADR-RES ovarian = tested on: NCI/ADR-RES ovarian

| Compound | GI50 (HOP-92 NSCLC) | TGI (HOP-92 NSCLC) | GI50 (SNB-19 CNS) | TGI (SNB-19 CNS) | TGI (MDA-MB-435) | GI50 (SF-268 CNS) | TGI (SF-268 CNS) | GI50 (SF-539 CNS) | TGI (SF-539 CNS) | GI50 (SNB-75 CNS) | TGI (SNB-75 CNS) | GI50 (CCRF-CEM leukemia) | TGI (CCRF-CEM leukemia) | GI50 (KM12 colon) | TGI (KM12 colon) | GI50 (MCF7 breast) | TGI (MCF7 breast) | GI50 (NCI/ADR-RES ovarian) | TGI (NCI/ADR-RES ovarian) | GI50 (MDA-MB-435) |
| --- | --- | --- | --- | --- | --- | --- | --- | --- | --- | --- | --- | --- | --- | --- | --- | --- | --- | --- | --- | --- |
| CCCCCCCCCCCCCC[C@@H](O)[C@H]1CC[C@H]([C@H]2CC[C@H]([C@H](O)CCCCCC[C@@H](O)CC3=C[C@H](C)OC3=O)O2)O1 | > 25 µM | 8.37 µM and > 25 µM | 1.75 µM | 7.71 µM and > 25 µM | > 25 µM | 1.69 µM | 5.04 µM and > 25 µM | 2.25 µM | 6.85 µM and > 25 µM | 1.7 µM | 4.95 µM and > 25 µM | 2.06 µM | > 25 µM | 1.55 µM | 4.1 µM and > 25 µM | 1.14 µM | 3.47 µM and > 25 µM | 0.676 µM | 2.95 µM and > 25 µM | – |
| O=[N+]([O-])c1cccc(C2CC(c3ccccc3)=Nc3ccccc3S2)c1 (stereo not drawn) | 14.3 µM | 45.6 µM | 15.4 µM | 44.8 µM | 37.7 µM | 13.1 µM | 26.9 µM | 17.2 µM | 31.3 µM | 9.53 µM | > 100 µM | 5.91 µM | > 100 µM | 6.32 µM | 19.3 µM | 2.06 µM | 13.3 µM | 22.1 µM | > 100 µM | 15.7 µM |
| Cc1cc(N2CCN(C)CC2)n2nc(-c3ccc(Cl)cc3)nc2n1 | – | > 100 µM | – | > 100 µM | > 100 µM | – | > 100 µM | – | > 100 µM | – | > 100 µM | – | > 100 µM | – | > 100 µM | – | > 100 µM | – | > 100 µM | – |
| CSC(=Nc1ccccc1)/N=C(\SCc1ccccc1)N(C)C | – | 2.73 µM | – | 2.68 µM | 2.48 µM | – | 2.48 µM | – | 2.57 µM | – | 3.25 µM | – | > 100 µM | – | 2.76 µM | – | 1.19 µM | – | 3.77 µM | – |
| O=C1Cc2cc(C(=O)NC3C[C@H]4CC[C@@H](C3)N4S(=O)(=O)CC3CCN(CCCC(F)(F)F)CC3)c(Cl)cc2N1 (stereo partly drawn) | 67.7 µM | > 100 µM | > 100 µM | > 100 µM | > 100 µM | > 100 µM | > 100 µM | > 100 µM | > 100 µM | > 100 µM | > 100 µM | > 100 µM | > 100 µM | > 100 µM | > 100 µM | > 100 µM | > 100 µM | > 100 µM | > 100 µM | > 100 µM |
| COc1cc2cc(Oc3ccc(NC(=O)Nc4ccc(Cl)c(Cl)c4)cc3)c(C)nc2cc1OC | 2.04 µM | 4.88 µM | 4.26 µM | 24 µM | 16.8 µM | 8.23 µM | > 100 µM | 5.18 µM | 22.3 µM | 2.33 µM | 8.28 µM | 2.38 µM | 14 µM | 3.22 µM | 13.4 µM | 2.89 µM | 13.8 µM | 2.6 µM | 16.9 µM | 3.09 µM |
| CCN(CC)Cc1cc2[nH]c3c4ccc(Cl)cc4ncc3c2cc1OC | 5.14 µM | 22.1 µM | 2.63 µM and 3.51 µM | 7.51 µM and 11.9 µM | 3.55 µM and 3.4 µM | 3.33 µM and 2.9 µM | 10 µM and 9.2 µM | 1.61 µM and 1.78 µM | 2.97 µM and 3.25 µM | 1.61 µM and 1.81 µM | 3.92 µM and 3.88 µM | 2.52 µM and 1.8 µM | > 19.7 µM and 4.57 µM | 2.18 µM and 1.72 µM | 7.09 µM and 4.37 µM | 2.17 µM and 1.61 µM | 8.37 µM and 3.29 µM | 3.67 µM and 3.31 µM | 13.5 µM and 12 µM | 1.78 µM and 1.75 µM |
| COc1ccc(/C(C#N)=C2C=C/C(=N/O)c3ccccc3\2)cc1 | 0.39 µM | 6.96 µM | 2.8 µM | 29.6 µM | 0.179 µM | 0.481 µM | 15 µM | 0.2 µM | 0.67 µM | 0.259 µM | 11.5 µM | 0.254 µM | 12.6 µM | 0.175 µM | 4.82 µM | 0.181 µM | 14.1 µM | 0.125 µM | 2.94 µM | 0.0388 µM |
| O=C(Nc1nc2ccccc2s1)Nc1ccc([N+](=O)[O-])cc1Cl | 3.81 µM | 11.7 µM | 8.2 µM | 26.7 µM | 14.2 µM | 4.49 µM | 18.6 µM | 1.69 µM | 3.11 µM | 1.87 µM | 5.36 µM | 2.52 µM | > 49.4 µM | 2.82 µM | 8.48 µM | 2.55 µM | 9.72 µM | 2.99 µM | 9.93 µM | 3.56 µM |
| N#CC1c2ccccc2C=CN1C(=O)N(c1ccccc1)c1ccccc1 (stereo not drawn) | 2 µM | 4.36 µM | 13.8 µM | 26.8 µM | 3.81 µM | 4.31 µM | 15.4 µM | 4.69 µM | 17.9 µM | 6.3 µM | 21 µM | 2.97 µM | 8.99 µM | 6.38 µM | 19.3 µM | 2.9 µM | 9.56 µM | 5.52 µM | 34 µM | 1.74 µM |
| CN1C(=O)C2(c3ccccc31)N(c1ccc(Cl)cc1)C(=O)C2(c1ccccc1)c1ccccc1 (stereo not drawn) | 5.62 µM | 49.1 µM | 22.4 µM | > 100 µM | > 100 µM | > 100 µM | > 100 µM | > 100 µM | > 100 µM | 17.8 µM | 90.5 µM | 9.72 µM | > 100 µM | > 100 µM | > 100 µM | 39.6 µM | > 100 µM | 34.7 µM | > 100 µM | > 100 µM |
| CN(Cc1cnc2nc(N)nc(N)c2n1)c1ccc(C(=O)NC(CCC(=O)O)C(=O)O)cc1Br (stereo not drawn) | 1.47 µM | 23.1 µM | < 0.01 µM | > 100 µM | 5.15 µM | < 0.01 µM | 13.1 µM | < 0.01 µM | 8.44 µM | – | 5.06 µM | < 0.01 µM | > 44.5 µM | < 0.01 µM | 11.6 µM | < 0.01 µM | > 100 µM | < 0.01 µM | > 100 µM | < 0.01 µM |
| C=CC(=O)N1CC2(CC(n3nc(-c4ccc5c(cnn5C)c4)c(-c4c(Cl)c(C)cc5[nH]ncc45)c3C)C2)C1 | 3.36 µM | 14.3 µM | 3.43 µM | 13.5 µM | 7.65 µM | 4.5 µM | 20 µM | 2.15 µM | 5.17 µM | 2.57 µM | 11.9 µM | 2.67 µM | 14.8 µM | 1.92 µM | 3.72 µM | 2.2 µM | 7.03 µM | 2.23 µM | 5.21 µM | 2.72 µM |
| O=C1NC(=NCCCc2ccccc2)S/C1=C\c1ccc2ncccc2c1 | 4.22 µM | 13.4 µM | 3.69 µM | > 22.4 µM | > 18 µM | 5.39 µM | 12.5 µM | 4.05 µM | 9.49 µM | 2.3 µM | 6.69 µM | 7.11 µM | > 25 µM | 8.84 µM | > 25 µM | 4.11 µM | 11.2 µM | 6.5 µM | 17.1 µM | 5.81 µM |
| c1ccc2c3c([nH]c2c1)C(c1ccc(C2NCCc4c2[nH]c2ccccc42)cc1)NCC3 (stereo not drawn) | 0.731 µM | 2.89 µM | 1.73 µM | 3.54 µM | 1.27 µM | 1.12 µM | 2.57 µM | 1.62 µM | 3.04 µM | 0.691 µM | 2.07 µM | 0.452 µM | 2.03 µM | 1.07 µM | 2.36 µM | 0.393 µM | 1.75 µM | 2.1 µM | 7.81 µM | 0.359 µM |
| CCOC(=O)c1cnc2c(C)cccc2c1Nc1ccc(C(C)=O)cc1 | 8.95 µM | 36.9 µM | 40.2 µM | > 100 µM | > 100 µM | 18.3 µM | 64.2 µM | 34.3 µM | > 100 µM | 15.4 µM | 51 µM | > 100 µM | > 100 µM | 51.2 µM | > 100 µM | 28 µM | > 100 µM | 16.5 µM | 72.5 µM | > 100 µM |
| CC[n+]1c(/C=C/C=C2\N(C)c3ccccc3C2(C)C)sc2ccccc21 | 3.54 µM | 10.8 µM | 4.1 µM | 7.8 µM | 7.66 µM | 4.43 µM | 8.92 µM | 4 µM | 7.5 µM | 3.7 µM | 7.5 µM | 4.96 µM | 18.1 µM | 4.46 µM | 8.7 µM | 4.42 µM | 10.4 µM | 4.26 µM | 8.9 µM | 3.98 µM |
